Test results: article PMC9929232, “On-demand male contraception via acute inhibition of soluble adenylyl cyclase” (Nature Communications, 2023)
“And” between values parts separate entries of the source, which are not always exact repeats. Identical values can stand only once.

Assays:
[1] = system: mouse sperm; test: cAMP generation in mouse sperm in vitro, incl. wash-out by dilution; conditions: 12 minutes
Procedure: For capacitation, sperm were incubated for 90 min in TYH containing 3 mg/ml BSA and 25 mM NaHCO3 in a 37 °C incubator. To control for the consequences of dilution during isolation of epididymal mouse sperm for ex vivo assays, we assessed the ability of bicarbonate to induce a prototypical pattern of tyrosine phosphorylation (pY) which is a widely used molecular hallmark of capacitation[53]. Bicarbonate-induced pY is known to be sAC dependent in vitro[20],[22],[35]. For experiments studying sperm from injected mice, ‘swim out’ was performed in 200 μl TYH, which corresponded to a 1:10 dilution from epididymis (20 μg cauda in 200 μl buffer). Capacitation-induced changes were assessed by adding 50 µl of ‘swim out’ sperm to increasing volumes of capacitating TYH buffer.
cAMP generation was measured in mouse and human sperm. […] For human sperm, aliquots of 2 × 10^6 cells were incubated for 30 min in the presence or absence of sAC inhibitor in non-capacitating or capacitating HTF buffer. In both cases, 0.1% DMSO was used as vehicle control.
After 5 min, 150 µl of sperm/inhibitor mix was diluted into 1.35 ml non-capacitating or capacitating media with no inhibitor. […] Sperm lysates were centrifuged at 2000 × g for 3 min and the cAMP in the supernatant was acetylated and quantified using the Direct cAMP ELISA kit (Enzo).

[2] = system: human sperm; test: cAMP generation in human sperm in vitro, incl. wash-out by dilution; type: cell-based; conditions: 30 minutes
Procedure: Samples of human semen were obtained from healthy volunteers with their prior written consent following a protocol approved by Weill Cornell Medicine’s Institutional Review Board (IRB 21-03023495). […] Semen was incubated for 30 min in a 37 °C incubator to liquefy. […] The tubes were incubated at a tilted angle of 45° at 37 °C for 60 min. Motile sperm were allowed to swim up into the HTF layer; immotile sperm and other cells or tissue debris remain in the ejaculate fraction. Up to 3 ml of the HTF layer was transferred to a fresh tube and washed twice in HTF by centrifugation (700 × g, 20 min). The supernatant was removed after the last centrifugation step and the sperm pellet was resuspended in 1 ml HTF. The purity and vitality of each sample was assessed via light microscopy. Sperm cell numbers were determined using a hemocytometer and adjusted to a concentration of 1 × 10^7 cells/ml.

[3] = system: mouse sperm; test: Flagellar beat frequency of tethered mouse sperm; type: cell-based
Procedure: (§1) An inverted dark-field video microscope (IX73; Olympus) with a 10 x objective (mouse sperm) or a 20 x objective (human sperm) (UPLSAPO, NA 0.8; Olympus) was combined with a high-speed camera (ORCA Fusion; Hamamatsu). Dark-field videos were recorded with a frame rate of 200 Hz. The temperature of the heated stage was set to 37 °C (stage top incubator WSKMX; TOKAI HIT). The images were preprocessed with the ImageJ plugin SpermQ Preparator (Gaussian blur with sigma 0.5 px; subtract background method with radius 5 px) and analyzed using the ImageJ plugin SpermQ[57]. The beat frequency was determined from the highest peak in the frequency spectrum of the curvature time course, obtained by Fast Fourier Transform.

[4] = biological target: T1, immobilized human sAC protein (Homo sapiens, UniProt Q96PN6); test: Surface plasmon resonance binding kinetics;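 also: Reference-channel response subtracted from active-channel response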; conditions: Fig. 1e
T1 construct: recombinant purified His-tagged sACt protein (50 μg/ml)
T1 sequence (Q96PN6 1-469 limits assumed): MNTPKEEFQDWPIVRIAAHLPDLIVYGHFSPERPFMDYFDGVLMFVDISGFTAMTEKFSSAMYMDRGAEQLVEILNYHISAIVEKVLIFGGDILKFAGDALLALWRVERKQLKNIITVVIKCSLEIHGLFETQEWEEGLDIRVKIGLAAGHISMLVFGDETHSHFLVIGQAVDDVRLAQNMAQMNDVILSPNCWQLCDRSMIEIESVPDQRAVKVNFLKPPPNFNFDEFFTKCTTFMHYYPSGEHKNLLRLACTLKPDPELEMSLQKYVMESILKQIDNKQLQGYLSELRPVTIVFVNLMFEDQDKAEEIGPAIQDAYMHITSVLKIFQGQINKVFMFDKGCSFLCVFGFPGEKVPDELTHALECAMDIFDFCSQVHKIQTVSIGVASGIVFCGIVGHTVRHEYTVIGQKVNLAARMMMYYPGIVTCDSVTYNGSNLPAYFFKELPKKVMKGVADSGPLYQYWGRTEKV
Procedure: Association and dissociation rate constants of sAC inhibitors were obtained with a Biacore 8K instrument (Cytiva) using a parallel kinetics protocol. Series S Sensor NTA chips (Cytiva) were prepared by applying recombinant purified His-tagged sACt protein (50 μg/ml) in PBS-P+ buffer (1 mM KH2PO4, 150 mM NaCl, 6 mM Na2HPO4, 0.05% (w/v) P20 Surfactant). The His-tagged sAC protein was captured via Ni^2+-His-tag chelation and covalently immobilized by amine coupling with a 1:1 mixture of 1-ethyl-3-(3-dimethylaminopropyl) carbodiimide and N-hydroxysuccinimide (active channels). After coupling, remaining reactive groups on the chip’s surface were blocked with 1 M ethanolamine followed by 350 mM EDTA to wash away any free Ni^2+. Following preparation, TBS-P+ running buffer (50 mM Tris, 150 mM NaCl, and 0.05% P20 Surfactant) supplemented with 1% DMSO was flowed over the surface of the chip until a stable baseline was obtained. For each sAC inhibitor, which were dissolved in DMSO and diluted in running buffer, increasing concentrations were injected into parallel channels for 120 s at a flow rate of 50 µl/min followed by running buffer for 600 s to allow for dissociation. All experiments included reference channels; i.e., inhibitor run over parallel channels without immobilized protein. […] Curves were fitted, and kon, KD, and koff values were determined using the Biacore 8K Insight Evaluation Software Version 2.0 (Cytiva) and a 1:1 binding kinetics model.

[5] = system: human sperm; test: Flagellar beat frequency of tethered human sperm; type: cell-based
Procedure: as §1

[6] = sheet Fig. 2a replicates, 5 μM TDI-10229 or 10 nM TDI-11861 present
[7] = sheet Fig. 2b replicates, 5 min preincubation in 5 μM TDI-10229 or 10 nM TDI-11861, diluted 1:100 into inhibitor-free media
[8] = sheet Fig. 2c replicates, 5 μM TDI-10229 or 10 nM TDI-11861 present
[9] = sheet Fig. 2d replicates, 5 min preincubation in 5 μM TDI-10229 or 10 nM TDI-11861, diluted 1:100 into inhibitor-free media

In the case of `Cc1c(Cc2ccccc2)c(-c2cc(Cl)nc(N)n2)nn1C` [TDI-10229, reference compound], the “cAMP, capacitation media” value [1, 6] is reported as 0.708 pmol/10^6 sperm and 0.223 pmol/10^6 sperm and 0.8377 pmol/10^6 sperm and 0.328 pmol/10^6 sperm and 0.317 pmol/10^6 sperm and 0.164 pmol/10^6 sperm and 0.248 pmol/10^6 sperm and 0.209 pmol/10^6 sperm and 0.814 pmol/10^6 sperm and 0.028 pmol/10^6 sperm, the “cAMP, non-capacitation media” value [1, 6] is reported as 0.791 pmol/10^6 sperm and 0.172 pmol/10^6 sperm and 0.69 pmol/10^6 sperm and 0.464 pmol/10^6 sperm and 0.354 pmol/10^6 sperm and 0.286 pmol/10^6 sperm and 0.57 pmol/10^6 sperm and 0.578 pmol/10^6 sperm and 1.32 pmol/10^6 sperm and 0.473 pmol/10^6 sperm and the “cAMP, capacitation media” value [1, 7] is reported as 0.7514 pmol/10^6 sperm and 0.838 pmol/10^6 sperm and 0.907 pmol/10^6 sperm and 0.4366 pmol/10^6 sperm and 0.08556 pmol/10^6 sperm and 0.441 pmol/10^6 sperm and 0.751 pmol/10^6 sperm and 1.195 pmol/10^6 sperm. The “cAMP, non-capacitation media” value [1, 7] was 0.7446 pmol/10^6 sperm and 0.94 pmol/10^6 sperm and 1.147 pmol/10^6 sperm and 0.8426 pmol/10^6 sperm and 0.7363 pmol/10^6 sperm and 0.601 pmol/10^6 sperm and 0.752 pmol/10^6 sperm and 1.525 pmol/10^6 sperm, the “cAMP, capacitation media” value [2, 8] was 0.877 pmol/10^6 sperm and 0.67 pmol/10^6 sperm and 0.652 pmol/10^6 sperm and 0.78 pmol/10^6 sperm and 1.141 pmol/10^6 sperm and 0.8484 pmol/10^6 sperm and 1.0045 pmol/10^6 sperm and the “cAMP, non-capacitation media” value [2, 8] was 0.136 pmol/10^6 sperm and 0.12 pmol/10^6 sperm and 0.2 pmol/10^6 sperm and 0.75 pmol/10^6 sperm and 0.55 pmol/10^6 sperm and 0.7798 pmol/10^6 sperm and 0.493 pmol/10^6 sperm. For the same compound, the “cAMP, capacitation media” value [2, 9] was 1.0484 pmol/10^6 sperm and 0.9036 pmol/10^6 sperm and 1.37 pmol/10^6 sperm and 1.1895 pmol/10^6 sperm and 1.866 pmol/10^6 sperm, the “cAMP, non-capacitation media” value [2, 9] was 0.7172 pmol/10^6 sperm and 0.3596 pmol/10^6 sperm and 1.05 pmol/10^6 sperm and 0.7885 pmol/10^6 sperm and 1.206 pmol/10^6 sperm and the “Beat frequency, Basal” value ([3]; distal 10 μm of flagellum, 5 μM TDI-10229 or 10 nM TDI-11861, mean ± SEM) was 10.4 ± 0.8 Hz. For the same compound, the “Beat frequency, + HCO3-” value ([3]; distal 10 μm, 25 mM NaHCO3, 5 μM TDI-10229 or 10 nM TDI-11861, mean ± SEM) was 11.7 ± 1.8 Hz, the SPR sensorgram response ([4]; 2.3 nM, Time 1.8 s) was -0.005 and the SPR sensorgram response ([4]; 2.3 nM, Time 1.9 s) was -0.0004. The SPR sensorgram response ([4]; 2.3 nM, Time 2 s) was 1.724e-7, the SPR sensorgram response ([4]; 7 nM, Time 1.8 s) was 0.0365 and the SPR sensorgram response ([4]; 7 nM, Time 1.9 s) was 0.0954. It also gave an SPR sensorgram response ([4]; 7 nM, Time 2 s) of 0.1127, an SPR sensorgram response ([4]; 21 nM, Time 1.8 s) of 0.0362 and an SPR sensorgram response ([4]; 21 nM, Time 1.9 s) of 0.0362. It also gave an SPR sensorgram response ([4]; 21 nM, Time 2 s) of 0.0493, an SPR sensorgram response ([4]; 62 nM, Time 1.8 s) of 0.4405 and an SPR sensorgram response ([4]; 62 nM, Time 1.9 s) of 0.5261. It also gave an SPR sensorgram response ([4]; 62 nM, Time 2 s) of 0.5966, an SPR sensorgram response ([4]; 185 nM, Time 1.8 s) of 1.6528 and an SPR sensorgram response ([4]; 185 nM, Time 1.9 s) of 1.8027. For the same compound, the SPR sensorgram response ([4]; 185 nM, Time 2 s) was 1.949, the SPR sensorgram response ([4]; 555 nM, Time 1.8 s) was 3.219 and the SPR sensorgram response ([4]; 555 nM, Time 1.9 s) was 3.5189. For the same compound, the SPR sensorgram response ([4]; 555 nM, Time 2 s) was 3.8049, the SPR sensorgram response ([4]; 1670 nM, Time 1.8 s) was 10.7814 and the SPR sensorgram response ([4]; 1670 nM, Time 1.9 s) was 11.5936. For the same compound, the SPR sensorgram response ([4]; 1670 nM, Time 2 s) was 12.3892, the “Beat frequency, Basal” value ([5]; distal 5 µm of flagellum, 5 μM TDI-10229 or 10 nM TDI-11861, mean ± SEM) was 12.2 ± 0.8 Hz and the “Beat frequency, + HCO3-” value ([5]; distal 5 µm, 25 mM NaHCO3, 5 μM TDI-10229 or 10 nM TDI-11861, mean ± SEM) was 14.5 ± 0.6 Hz.
